Experimental data as given in the supplement of paper PMC10307832.

Experiments:
Experiment in all cases: relative viability (nuclei count vs DMSO), 5 days (fraction); higher = more cells survive
[1] = compound: CCC1=CN=CN=C1N2CCN(CC2)CC3=NC4=C(N3)C=C(C=C4)C(F)(F)F + CC(=O)Nc1cccc(-n2c(=O)n(C3CC3)c(=O)c3c(Nc4ccc(I)cc4F)n(C)c(=O)c(C)c32)c1 [Trametinib] (partner 0.02 µM)
In short: (§1)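 Lung cancer cell lines, seeded in 1536-well plates, were treated the following day by pin tool with a single drug or with five library-drug doses (not always all listed) in √10 steps on top of a fixed anchor-drug dose. Cells were fixed and nuclei stained in one step after 5 days, and nuclei were counted. Relative viability is the nuclei count for treated wells divided by that for vehicle wells, reported as medians of duplicate plates.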

[2] = compound: CCn1c(-c2nonc2N)nc2cnc(Oc3cccc(NC(=O)c4ccc(OCCN5CCOCC5)cc4)c3)cc21 + N=C(N)NC(=N)NCCc1ccccc1 [Phenformin] (partner 250 µM)
In short: as §1

[3] = compound: N=C1NC(=O)/C(=C/c2ccc(O)cc2)S1 [Mirin] + CC(=O)c1c(C)c2cnc(Nc3ccc(N4CCNCC4)cn3)nc2n(C2CCCC2)c1=O [Palbociclib] (partner 0.5 µM)
In short: as §1

[4] = compound: N=C1NC(=O)/C(=C/c2ccc(O)cc2)S1 [Mirin] + Cc1nc(Nc2ncc(C(=O)Nc3c(C)cccc3Cl)s2)cc(N2CCN(CCO)CC2)n1 [Dasatinib] (partner 0.075 µM)
In short: as §1

UMC-11
relative viability ([1]; first compound 0.04 µM): 0.721 | relative viability ([1]; first compound 0.1265 µM): 0.592 | relative viability ([1]; first compound 0.4 µM): 0.671 | relative viability ([1]; first compound 1.265 µM): 0.514 | relative viability ([1]; first compound 4 µM): 0.721 | relative viability ([2]; first compound 0.04 µM): 0.304 | relative viability ([2]; first compound 0.1265 µM): 0.25 | relative viability ([2]; first compound 0.4 µM): 0.198 | relative viability ([2]; first compound 1.265 µM): 0.225 | relative viability ([2]; first compound 4 µM): 0.129 | relative viability ([3]; first compound 0.25 µM): 0.33 | relative viability ([3]; first compound 2.5 µM): 0.317 | relative viability ([3]; first compound 7.906 µM): 0.331 | relative viability ([3]; first compound 25 µM): 0.309 | relative viability ([4]; first compound 0.25 µM): 0.45 | relative viability ([4]; first compound 0.7906 µM): 0.424 | relative viability ([4]; first compound 2.5 µM): 0.493 | relative viability ([4]; first compound 7.906 µM): 0.415 | relative viability ([4]; first compound 25 µM): 0.438
